Measurements taken from patent US8242280B2, “Fused ring heterocycle kinase modulators” (SGX Pharmaceuticals, Inc., priority 2007, dated 2012).
pIC50: −log10 of the molar value.

Legend:
Ba/F3 cells, ABL1 WT = Ba/F3 cells, ABL1 WT (Homo sapiens, UniProt P00519); test: 96-well XTT cell survival assay, Ba/F3 ABL1 WT; type: cell-based; details: 72 hours, read-out: ABL1 WT XTT [Ba/F3] IC50
Description: (§1) MV4-11 and THP cells were maintained in Iscove's Modified Dulbecco's Medium supplemented with 10% fetal bovine serum (FBS) and penicillin/streptomycin, Ba/F3 cells were maintained in RPMI 1640 supplemented with 10% FBS, penicillin/streptomycin and 5 ng/ml recombinant mouse IL-3.
(§2) Compounds were tested in the following assays in duplicate.
(§3) 96-well XTT assay: Cells (e.g. BaF3 315I, M351I, or E255K cells) were grown in growth media containing various concentrations of compounds (duplicates) on a 96-well plate for 72 hours at 37° C. The starting cell number was 5000-8000 cells per well and volume was 120 μl. At the end of the 72-hour incubation, 40 μl of XTT labeling mixture (50:1 solution of sodium 3′-[1-(phenylamino-carbonyl)-3,4-tetrazolium]-bis(4-methoxy-6-nitro)benzene sulfonic acid hydrate and Electron-coupling reagent: PMS (N-methyl dibenzopyrazine methyl sulfate) were added to each well of the plate. After an additional 2-6 hours of incubation at 37° C., the absorbance reading at 405 nm with background correction at 650 nm was measured with a spectrophotometer.

Ba/F3 cells, ABL1 T315I = Ba/F3 cells, ABL1 T315I (Homo sapiens, UniProt P00519, T315I, cells depend on it); test: 96-well XTT cell survival assay, Ba/F3 ABL1 T315I; type: cell-based; details: 72 hours, read-out: ABL1 T315I XTT [Ba/F3] IC50
Description: as §1, §2, §3

[1] = molecular target: T1, unphosphorylated T315I Abl kinase domain (Mus musculus, UniProt P00520, T315I); test: c-Abl T315I 0P bioassay (pyruvate kinase/lactate dehydrogenase coupled enzyme assay); type: biochemical; details: zero phosphorylation state (0P), 10 μM ATP, read-out: AbI T315I 0P IC50
T1 construct: purified and unphosphorylated T315I Abl kinase domain; made in house; host or cells: E. coli BL21(DE3) (Codon+RIL or pSA0145 strain)
T1 sequence (P00520 242-493 T315I limits assumed): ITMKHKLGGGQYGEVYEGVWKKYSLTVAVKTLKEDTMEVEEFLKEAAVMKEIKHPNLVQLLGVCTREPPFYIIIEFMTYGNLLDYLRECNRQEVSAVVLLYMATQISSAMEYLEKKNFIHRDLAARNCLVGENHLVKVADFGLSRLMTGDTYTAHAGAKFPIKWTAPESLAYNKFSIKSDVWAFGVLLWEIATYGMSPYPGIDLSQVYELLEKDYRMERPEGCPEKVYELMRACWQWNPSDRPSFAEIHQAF
Excerpt: Although the first of these examples uses the kinase domain of a mutant form of Abl T315I (“Abl T315I KD”), the kinase assays may use various forms of mutant and wild type enzymes, including, for example, the entire protein, the kinase domain, or a portion thereof (e.g. Abl Y393F). The kinases used in the assays may also be of varying phosphorylation states. In the c-Abl example, a mutant kinase at a zero phosphorylation state was used. c-Abl Pyruvate Kinase/Lactate Dehydrogenase Coupled Enzyme Assay
In the c-Abl Pyruvate Kinase (PK)/Lactate Dehydrogenase (LDH) Coupled Assay the protein kinase dependant phosphorylation of a substrate peptide was coupled to the oxidation of NADH. The oxidation of NADH to NAD+ was detected by monitoring a decrease in absorbance at 340 nm.
Materials: Abl substrate peptide=EAIYAAPFAKKK (SEQ ID NO: 1)—OH (Biopeptide, San Diego, Calif.); pNADH (Sigma Cat#N-8129, FW=709.4); 2M MgC12; 1M HEPES buffer, pH 7.5; Phosphoenolpyruvate (PEP) (Sigma Cat#P-7002, FW=234); Lactate dehydrogenase (LDH) (Worthington Biochemical Cat#2756); Pyruvate Kinase (PK) (Sigma Cat#P-9136); ATP (Sigma Cat#A-3377, FW=551); Greiner 384-well UV star plate; and purified and unphosphorylated T315I Abl kinase domain.
Stock Solutions: 10 mM NADH (7.09 mg/ml in miliQH2O) made fresh daily; 10 mM Abl substrate peptide (13.4 mg/ml in miliQH2O) stored at −20° C.; 100 mM HEPES buffer, pH 7.5 (5 ml 1M stock+45 ml miliQH2O); 100 mM MgCl2 (5 ml 2M MgCl2+95 ml dH2O); 100 MM PEP (23.4 mg/ml in dH2O) stored at −20° C.; 10 mM ATP (5.51 mg/ml in dH2O) stored at −20° C. (diluted 50 μl into total of 10 ml miliQH2O daily=50 μM ATP working stock); 1000 U/ml PK (U/mg varies with lot) flash-frozen under liquid N2 and stored at −80° C.; and 1000 U/ml LDH (U/mg varies with lot) flash-frozen under liquid N2 and stored at −80° C.
Standard Assay Setup for 384-well format (50 μl reaction): 300 μM NADH; 10 mM MgCl2; 2 mM PEP; 45U/ml PK; 60 U/ml LDH; 200 μM Abl substrate peptide; 2.5 μl test compound (in DMSO); 2 μg/ml Abl kinase domain; 10 μM ATP; 100 mM HEPES buffer. Positive controls contained DMSO with no test compound. Negative controls contained 5 μl of 0.5M EDTA (50 mM in the assay). The dephosphorylated form of the c-Abl T315I mutant was used in the biochemical screening assays. The kinase reaction was initiated at time t=0 by the addition of ATP.
Activity was measured by following the time-dependent loss of NADH by absorbance spectroscopy at 340 nm. The linear portion of the resulting progress curve was then analyzed by linear regression to get the activity in absorbance units/time, reported as the slope of that best fit line (moles/unit time can be calculated from using molar extinction coefficient for NADH at 340 nm, 6250M^−1 cm^−1).
Data was evaluated using the equation: Z′=1−[3*(σ++σ−)/|μ+−μ−|](Zhang, et al., 1999 J Biomol Screening 4(2) 67-73), where μ denotes the mean and σ the standard deviation. The subscript designates positive or negative controls. The Z′ score for a robust screening assay should be ≧0.50. The typical threshold=μ+−3*σ+. Any value that falls below the threshold was designated a “hit”.
Dose response was analyzed using the equation: y=min+{(max−min)/(1+10^[compound]−logIC50)}, where y is the observed initial slope, max=the slope in the absence of inhibitor, min=the slope at infinite inhibitor, and the IC50 is the [compound] that corresponds to ½ the total observed amplitude (Amplitude=max−min).
To measure modulation, activation, or inhibition of Abl KD, a test compound was added to the assay at a range of concentrations. Inhibitors may inhibit Abl KD activity at an IC50 in the micromolar range, the nanomolar range, or, for example, in the subnanomolar range.
An open-reading frame for c-Abl was amplified from a Mus musculus (mouse) cDNA library prepared from freshly harvested mouse liver using a commercially available kit (invitrogen) by PCR using the following primers: […]
The c-Abl T315I KD (kinase domain) was purified as follows. […]

pIC50 [1] | Structure (SMILES) | GI50 (Ba/F3 cells, ABL1 WT) | GI50 (Ba/F3 cells, ABL1 T315I)
6.30 to 7.30 | COc1ccccc1-c1c[nH]c2ncc(-c3cccc(C(CC(=O)N4CCC[C@@H]4CO)N4CCS(=O)(=O)CC4)c3)cc12 (stereo partly shown) | > 1000 nM | > 1000 nM
> 7.30 | COc1ccccc1-c1c[nH]c2ncc(-c3cccc(C(C(=O)N(C)C)N4CCNCC4)c3)cc12 (stereo not shown) | > 1000 nM | > 1000 nM
> 7.30 | COc1ccccc1-c1n[nH]c2ncc(-c3cccc(C(OC)C(=O)N4CC(O)C4)c3)cc12 (stereo not shown) | – | –
> 7.30 | COc1ccccc1-c1n[nH]c2ncc(-c3cccc(C(O)CN)c3)cc12 (stereo not shown) | – | –
> 7.30 | CNCCN(C)C(=O)C(N)c1cccc(-c2cnc3[nH]cc(-c4ccccc4OC)c3c2)c1 (stereo not shown) | > 1000 nM | > 1000 nM
> 7.30 | COc1ccccc1-c1n[nH]c2ncc(-c3cccc(C(O)C(=O)N(C)CC#N)c3)cc12 (stereo not shown) | < 1000 nM | > 1000 nM
> 7.30 | COc1ccccc1-c1n[nH]c2ncc(-c3cccc(C(O)C(=O)N(C)CCC#N)c3)cc12 (stereo not shown) | < 1000 nM | < 1000 nM
> 7.30 | COc1ccccc1-c1n[nH]c2ncc(-c3cccc(C(O)C(=O)N(C)C4CCOCC4)c3)cc12 (stereo not shown) | < 1000 nM | < 1000 nM
> 7.30 | COc1ccccc1-c1n[nH]c2ncc(-c3cccc(C(O)C(=O)N(C)Cc4ccco4)c3)cc12 (stereo not shown) | > 1000 nM | > 1000 nM
> 7.30 | COc1ccccc1-c1n[nH]c2ncc(-c3cccc(C(O)C(=O)N(C)CCO)c3)cc12 (stereo not shown) | < 1000 nM | < 1000 nM
> 7.30 | COc1ccccc1-c1c[nH]c2ncc(-c3cncc(C(O)C(=O)N(C)C)c3)cc12 (stereo not shown) | < 1000 nM | < 1000 nM
> 7.30 | COc1ccccc1-c1n[nH]c2ncc(-c3cccc(C(O)C(=O)N(C4CC4)C4CCN(C)CC4)c3)cc12 (stereo not shown) | < 1000 nM | < 1000 nM
> 7.30 | COc1ccccc1-c1n[nH]c2ncc(-c3cccc(C(O)C(=O)N(C)CCNC(C)(C)C)c3)cc12 (stereo not shown) | < 1000 nM | < 1000 nM
> 7.30 | COc1ccccc1-c1n[nH]c2ncc(-c3cccc(C(C)C(=O)N(C)C)c3)cc12 (stereo not shown) | > 1000 nM | > 1000 nM
> 7.30 | COc1ccccc1-c1n[nH]c2ncc(-c3cccc(C(C)C(=O)N(C)CCN(C)C)c3)cc12 (stereo not shown) | > 1000 nM | > 1000 nM
> 7.30 | COc1ccccc1-c1n[nH]c2ncc(-c3cccc(C(C)C(=O)N4CCC(N(C)C)C4)c3)cc12 (stereo not shown) | < 1000 nM | < 1000 nM
> 7.30 | COc1ccccc1-c1n[nH]c2ncc(-c3cccc(C(C)C(=O)N(C)C4CCN(C)C4)c3)cc12 (stereo not shown) | < 1000 nM | > 1000 nM
> 7.30 | COc1ccccc1-c1n[nH]c2ncc(-c3cccc(C(C)C(=O)N4CCC(O)C4)c3)cc12 (stereo not shown) | > 1000 nM | > 1000 nM
> 7.30 | COc1ccccc1-c1n[nH]c2ncc(-c3cccc(C(C)C(=O)N4CCC(N(C)C)CC4)c3)cc12 (stereo not shown) | < 1000 nM | < 1000 nM
> 7.30 | COc1ccccc1-c1n[nH]c2ncc(-c3cccc(C(C)C(=O)N4CCC(O)CC4)c3)cc12 (stereo not shown) | < 1000 nM | > 1000 nM

pIC50 [1] | Structure (SMILES) | GI50 (Ba/F3 cells, ABL1 WT) | GI50 (Ba/F3 cells, ABL1 T315I)
> 7.30 | COc1ccccc1-c1n[nH]c2ncc(-c3cccc(C(C)C(=O)N4CC(O)C4)c3)cc12 (stereo not shown) | > 1000 nM | > 1000 nM
> 7.30 | CNC(C(=O)N1CCC(O)C1)c1cccc(-c2cnc3[nH]nc(-c4ccccc4OC)c3c2)c1 (stereo not shown) | – | –
6.30 to 7.30 | COc1ccccc1-c1n[nH]c2ncc(-c3cccc(C(C(=O)N(C)C)N(C)C)c3)cc12 (stereo not shown) | – | –
6.30 to 7.30 | COc1ccccc1-c1n[nH]c2ncc(-c3cccc(C(C(=O)N4CCC(O)C4)N(C)C)c3)cc12 (stereo not shown) | – | –
6.30 to 7.30 | COc1ccccc1-c1n[nH]c2ncc(-c3cccc(C(C(=O)N(C)C(C)C)N(C)C)c3)cc12 (stereo not shown) | – | –
< 6.30 | COc1ccccc1-c1c[nH]c2ncc(-c3cncc(C(O)C(=O)N(C)C)n3)cc12 (stereo not shown) | – | –
> 7.30 | COc1ccccc1-c1n[nH]c2ncc(-c3cccc([C@@H]4OCO[C@H]4C(C)C)c3)cc12 | – | –
> 7.30 | CC(=O)Nc1ccc(-c2c[nH]c3ncc(-c4cncc(C(O)C(=O)N(C)C)c4)cc23)cc1 (stereo not shown) | – | > 1000 nM
6.30 to 7.30 | CN(C)C(=O)C(O)c1cncc(-c2cnc3[nH]cc(-c4cccc(C#N)c4)c3c2)c1 (stereo not shown) | – | –
6.30 to 7.30 | CN(C)C(=O)C(O)c1cncc(-c2cnc3[nH]cc(-c4ccc(C(F)(F)F)cc4)c3c2)c1 (stereo not shown) | – | –
6.30 to 7.30 | Cc1noc(C)c1-c1c[nH]c2ncc(-c3cncc(C(O)C(=O)N(C)C)c3)cc12 (stereo not shown) | – | –
6.30 to 7.30 | CN(C)C(=O)C(O)c1cncc(-c2cnc3[nH]cc(-c4cnn(C)c4)c3c2)c1 (stereo not shown) | – | –
6.30 to 7.30 | CN(C)C(=O)C(O)c1cncc(-c2cnc3[nH]cc(-c4ccn(-c5ccccc5)n4)c3c2)c1 (stereo not shown) | – | –
6.30 to 7.30 | CN(C)C(=O)C(O)c1cncc(-c2cnc3[nH]cc(-c4ncco4)c3c2)c1 (stereo not shown) | – | –
< 6.30 | CN(C)C(=O)C(O)c1cncc(-c2cnc3[nH]cc(-c4cc(C(F)(F)F)nn4C)c3c2)c1 (stereo not shown) | – | –
< 6.30 | CN(C)C(=O)C(=O)c1cncc(-c2cnc3[nH]cc(-c4ccnn4C)c3c2)c1 | – | –
< 6.30 | COc1ccccc1-c1c[nH]c2ncc(-c3cccc(C(CC(=O)N(C)C)N4CCS(=O)(=O)CC4)c3)cc12 (stereo not shown) | – | –
< 6.30 | COc1ccccc1-c1c[nH]c2ncc(-c3cccc(C(CC(=O)N(C)CCN(C)C)N4CCS(=O)(=O)CC4)c3)cc12 (stereo not shown) | – | –
> 7.30 | CN(C)C(=O)C(O)c1cncc(-c2cnc3[nH]cc(-c4cccc(Cl)c4)c3c2)c1 (stereo not shown) [drawing 459] | < 1000 nM | –
